Reference: patent US8796245B2 (TetraPhase Pharmaceuticals, Inc., priority 2008, dated 2014)
In brackets after ≈: the same amount, converted by molar mass.

Experiments:
Format in all cases: cell-based
[1] = tested on: S. pneumoniae ATCC 49619 (SP106); assay: Minimum inhibitory concentration assay, SP106; conditions: Streptococcus pneumoniae, ATCC49619; S. pneumoniae ATCC 49619, wt; read-out: MICs SP106
Description: (§1) Frozen bacterial strains were thawed and subcultured onto Mueller Hinton Broth (MHB) or other appropriate media (Streptococcus requires blood and Haemophilus requires hemin and NAD). Following incubation overnight, the strains were subcultured onto Mueller Hinton Agar and again incubated overnight. […] Isolated colonies were selected to prepare a starting inoculum equivalent to a 0.5 McFarland standard. The starting inoculum was diluted 1:125 using MHB for further use. Test compounds were prepared by dilution in sterile water to a final concentration of 5.128 mg/mL. Antibiotics (stored frozen, thawed and used within 3 hours of thawing) and compounds were further diluted to the desired working concentrations.
(§2) The assays were run as follows. Fifty μL of MHB was added to wells 2-12 of a 96-well plate. One hundred […] of appropriately diluted antibiotics was added to well 1. Fifty μL of antibiotics was removed from well 1 and added to well 2 and the contents of well 2 mixed by pipetting up and down five times. Fifty μL of the mixture in well 2 was removed and added to well 3 and mixed as above. Serial dilutions were continued in the same manner through well 12. Fifty μL was removed from well 12 so that all contained 50 μL. Fifty μL of the working inoculum was then added to all test wells. A growth control well was prepared by adding 50 μL of working inoculum and 50 μL of MHB to an empty well. The plates were then incubated at 37° C. overnight, removed from the incubator and each well was read on a plate reading mirror. The lowest concentration (MIC) of test compound that inhibited the growth of the bacteria was recorded.

[2] = tested on: S. aureus ATCC 29213 (SA101, MSSA); assay: Minimum inhibitory concentration assay, SA101; conditions: Staphylococcus aureus; S. aureus ATCC 29213, MSSA control; read-out: MICs SA101
Description: as §1, §2

[3] = tested on: P. aeruginosa ATCC 27853 (PA111); assay: Minimum inhibitory concentration assay, PA111; conditions: Pseudomonas aeruginosa, ATCC27853; P. aeruginosa ATCC 27853, wt; read-out: MICs PA111
Description: as §1, §2

[4] = tested on: K. pneumoniae ATCC 13883 (KP109); assay: Minimum inhibitory concentration assay, KP109; conditions: Klebsiella pneumoniae, ATCC13883; K. pneumoniae ATCC 13883, wt; read-out: MICs KP109
Description: as §1, §2

[5] = tested on: E. faecalis EF159 (tet resistant: tetM); assay: Minimum inhibitory concentration assay, EF159; conditions: Enterococcus faecalis, read-out: MICs EF159
Description: as §1, §2

[6] = tested on: A. baumanii ATCC 19606 (AB110); assay: Minimum inhibitory concentration assay, AB110; conditions: Acinetobacter baumannii, ATCC19606; A. baumanii ATCC 19606, wt; read-out: MICs AB110
Description: as §1, §2

[7] = tested on: E. cloacae ATCC 13047 (EC108); assay: Minimum inhibitory concentration assay, EC108; conditions: Enterobacter cloacae, ATCC13047; E. cloacae ATCC 13047, wt; read-out: MICs EC108
Description: as §1, §2

[8] = tested on: E. coli ATCC 25922 (EC107); assay: Minimum inhibitory concentration assay, EC107; conditions: Escherichia coli, ATCC25922; E. coli ATCC 25922, wt; read-out: MICs EC107
Description: as §1, §2

[9] = tested on: E. faecalis ATCC 29212 (EF103); assay: Minimum inhibitory concentration assay, EF103; conditions: Enterococcus faecalis, ATCC29212, read-out: MICs EF103
Description: as §1, §2

[10] = tested on: K. pneumoniae KP153 (tet resistant: tetA efflux); assay: microbe, parasite or virus in culture; conditions: Klebsiella pneumoniae, read-out: MICs KP153
Description: as §1, §2

[11] = tested on: S. aureus SA158 (tet resistant: tetK efflux); assay: microbe, parasite or virus in culture; conditions: Staphylococcus aureus, read-out: MICs SA158
Description: as §1, §2

[12] = tested on: E. coli EC155 (tet resistant: tetA efflux); assay: microbe, parasite or virus in culture; conditions: Escherichia coli; E. coli tet resistant: tetA (efflux); read-out: MICs EC155
Description: as §1, §2

[13] = tested on: S. aureus SA161 (tet resistant: tet(M) ribosomal protection); assay: Minimum inhibitory concentration assay, SA161; conditions: Staphylococcus aureus, read-out: MICs SA161
Description: as §1, §2

[14] = tested on: S. pneumoniae SP160 (tet resistant: tet M); assay: Minimum inhibitory concentration assay, SP160; conditions: Streptococcus pneumoniae, read-out: MICs SP160
Description: as §1, §2

[15] = tested on: S. aureus ATCC 13709 (SA100, MSSA, Smith strain); assay: Minimum inhibitory concentration assay, SA100; conditions: Staphylococcus aureus; S. aureus ATCC 13709, MSSA Smith strain; read-out: MICs SA100
Description: as §1, §2

Structure (SMILES) | MIC [1] | MIC [2] | MIC [3] | MIC [4] | MIC [5] | MIC [6] | MIC [7] | MIC [8] | MIC [9] | MIC [10] | MIC [11] | MIC [12] | MIC [13] | MIC [14] | MIC [15]
CN(C)[C@@H]1CCN(CC(=O)Nc2cc(F)c3c(c2O)C(=O)C2=C(O)[C@]4(O)C(=O)C(C(N)=O)=C(O)[C@@H](N(C)C)[C@@H]4C[C@@H]2C3)C1 [Compound 37] | 2 µg/mL (≈ 3.32 µM) | 8 µg/mL (≈ 13.3 µM) | > 32 µg/mL | > 32 µg/mL | 16 µg/mL (≈ 26.6 µM) | > 32 µg/mL | > 32 µg/mL | > 32 µg/mL | 16 µg/mL (≈ 26.6 µM) | > 32 µg/mL | > 32 µg/mL | > 32 µg/mL | > 32 µg/mL | 4 µg/mL (≈ 6.65 µM) | 8 µg/mL (≈ 13.3 µM)
CC(C)NCC(=O)Nc1cc(F)c2c(c1O)C(=O)C1=C(O)[C@]3(O)C(=O)C(C(N)=O)=C(O)[C@@H](N(C)C)[C@@H]3C[C@@H]1C2 [Compound 16] | ≤ 0.0156 µg/mL | 0.125 µg/mL (≈ 0.229 µM) | 16 µg/mL (≈ 29.3 µM) | 1 µg/mL (≈ 1.83 µM) | 0.0625 µg/mL (≈ 0.114 µM) | 1 µg/mL (≈ 1.83 µM) | 1 µg/mL (≈ 1.83 µM) | 0.5 µg/mL (≈ 0.915 µM) | 0.0625 µg/mL (≈ 0.114 µM) | 4 µg/mL (≈ 7.32 µM) | 0.5 µg/mL (≈ 0.915 µM) | 8 µg/mL (≈ 14.6 µM) | 0.25 µg/mL (≈ 0.457 µM) | ≤ 0.0156 µg/mL | 0.25 µg/mL (≈ 0.457 µM)
CN(C)[C@@H]1C(O)=C(C(N)=O)C(=O)[C@@]2(O)C(O)=C3C(=O)c4c(O)c(NC(=O)CNC5CC5)cc(F)c4C[C@H]3C[C@@H]12 [Compound 17] | 0.0625 µg/mL (≈ 0.115 µM) | 0.25 µg/mL (≈ 0.459 µM) | 32 µg/mL (≈ 58.8 µM) | 4 µg/mL (≈ 7.35 µM) | 1 µg/mL (≈ 1.84 µM) | 0.5 µg/mL (≈ 0.918 µM) | 8 µg/mL (≈ 14.7 µM) | 2 µg/mL (≈ 3.67 µM) | 0.25 µg/mL (≈ 0.459 µM) | 32 µg/mL (≈ 58.8 µM) | 2 µg/mL (≈ 3.67 µM) | 32 µg/mL (≈ 58.8 µM) | 1 µg/mL (≈ 1.84 µM) | 0.0625 µg/mL (≈ 0.115 µM) | 0.5 µg/mL (≈ 0.918 µM)
CCCCCNCC(=O)Nc1cc(F)c2c(c1O)C(=O)C1=C(O)[C@]3(O)C(=O)C(C(N)=O)=C(O)[C@@H](N(C)C)[C@@H]3C[C@@H]1C2 [Compound 26] | ≤ 0.0156 µg/mL | 1 µg/mL (≈ 1.74 µM) | 16 µg/mL (≈ 27.8 µM) | 2 µg/mL (≈ 3.48 µM) | 0.5 µg/mL (≈ 0.87 µM) | 0.25 µg/mL (≈ 0.435 µM) | 2 µg/mL (≈ 3.48 µM) | 0.5 µg/mL (≈ 0.87 µM) | 0.25 µg/mL (≈ 0.435 µM) | 4 µg/mL (≈ 6.96 µM) | 1 µg/mL (≈ 1.74 µM) | 4 µg/mL (≈ 6.96 µM) | 1 µg/mL (≈ 1.74 µM) | ≤ 0.0156 µg/mL | 1 µg/mL (≈ 1.74 µM)
COC[C@H]1CCCN1CC(=O)Nc1cc(F)c2c(c1O)C(=O)C1=C(O)[C@]3(O)C(=O)C(C(N)=O)=C(O)[C@@H](N(C)C)[C@@H]3C[C@@H]1C2 [Compound 42] | 0.125 µg/mL (≈ 0.207 µM) | 0.5 µg/mL (≈ 0.83 µM) | > 32 µg/mL | 8 µg/mL (≈ 13.3 µM) | 1 µg/mL (≈ 1.66 µM) | 0.5 µg/mL (≈ 0.83 µM) | 16 µg/mL (≈ 26.6 µM) | 4 µg/mL (≈ 6.64 µM) | 0.5 µg/mL (≈ 0.83 µM) | 16 µg/mL (≈ 26.6 µM) | 1 µg/mL (≈ 1.66 µM) | 16 µg/mL (≈ 26.6 µM) | 2 µg/mL (≈ 3.32 µM) | 0.0625 µg/mL (≈ 0.104 µM) | 1 µg/mL (≈ 1.66 µM)
CN(C)[C@@H]1C(O)=C(C(N)=O)C(=O)[C@@]2(O)C(O)=C3C(=O)c4c(O)c(NC(=O)CN5CC[C@H](F)C5)cc(F)c4C[C@H]3C[C@@H]12 [Compound 36] | ≤ 0.0156 µg/mL | 0.25 µg/mL (≈ 0.434 µM) | > 32 µg/mL | 4 µg/mL (≈ 6.94 µM) | 0.25 µg/mL (≈ 0.434 µM) | 0.125 µg/mL (≈ 0.217 µM) | 4 µg/mL (≈ 6.94 µM) | 2 µg/mL (≈ 3.47 µM) | 0.25 µg/mL (≈ 0.434 µM) | 32 µg/mL (≈ 55.5 µM) | 1 µg/mL (≈ 1.73 µM) | 32 µg/mL (≈ 55.5 µM) | 0.5 µg/mL (≈ 0.867 µM) | ≤ 0.0156 µg/mL | 0.5 µg/mL (≈ 0.867 µM)
CN(C)[C@@H]1C(O)=C(C(N)=O)C(=O)[C@@]2(O)C(O)=C3C(=O)c4c(O)c(NC(=O)CN5CCOCC5)cc(F)c4C[C@H]3C[C@@H]12 [Compound 44] | 0.5 µg/mL (≈ 0.87 µM) | 4 µg/mL (≈ 6.96 µM) | > 32 µg/mL | > 32 µg/mL | 8 µg/mL (≈ 13.9 µM) | 8 µg/mL (≈ 13.9 µM) | > 32 µg/mL | 32 µg/mL (≈ 55.7 µM) | 8 µg/mL (≈ 13.9 µM) | > 32 µg/mL | 8 µg/mL (≈ 13.9 µM) | > 32 µg/mL | 8 µg/mL (≈ 13.9 µM) | 1 µg/mL (≈ 1.74 µM) | 4 µg/mL (≈ 6.96 µM)
CCCCCCCNCC(=O)Nc1cc(F)c2c(c1O)C(=O)C1=C(O)[C@]3(O)C(=O)C(C(N)=O)=C(O)[C@@H](N(C)C)[C@@H]3C[C@@H]1C2 [Compound 29] | 1 µg/mL (≈ 1.66 µM) | 4 µg/mL (≈ 6.64 µM) | > 32 µg/mL | 8 µg/mL (≈ 13.3 µM) | 2 µg/mL (≈ 3.32 µM) | 8 µg/mL (≈ 13.3 µM) | 8 µg/mL (≈ 13.3 µM) | 8 µg/mL (≈ 13.3 µM) | 2 µg/mL (≈ 3.32 µM) | 8 µg/mL (≈ 13.3 µM) | 2 µg/mL (≈ 3.32 µM) | 8 µg/mL (≈ 13.3 µM) | 4 µg/mL (≈ 6.64 µM) | 1 µg/mL (≈ 1.66 µM) | 4 µg/mL (≈ 6.64 µM)
CN(C)[C@@H]1C(O)=C(C(N)=O)C(=O)[C@@]2(O)C(O)=C3C(=O)c4c(O)c(NC(=O)CNc5ccccc5)cc(F)c4C[C@H]3C[C@@H]12 [Compound 30] | 2 µg/mL (≈ 3.44 µM) | 2 µg/mL (≈ 3.44 µM) | > 32 µg/mL | > 32 µg/mL | 2 µg/mL (≈ 3.44 µM) | 8 µg/mL (≈ 13.8 µM) | > 32 µg/mL | > 32 µg/mL | 2 µg/mL (≈ 3.44 µM) | > 32 µg/mL | 2 µg/mL (≈ 3.44 µM) | > 32 µg/mL | 4 µg/mL (≈ 6.89 µM) | 4 µg/mL (≈ 6.89 µM) | 1 µg/mL (≈ 1.72 µM)
